Our source for the IC50 and MIC values is patent US12247004B2, “2-amino-N-(amino-oxo-aryl-lambda6-sulfanylidene)acetamide compounds and their therapeutic use” (Oxford Drug Design Limited, priority 2019, dated 2025).

In series [1] the target is Isoleucyl-tRNA synthetase (IleRS) (Escherichia coli (strain K12), UniProt P00956). The series is described as follows: Isoleucyl-tRNA synthetase enzyme inhibition (AMP-Glo; single point % inhibition at 100 μM and IC50). It counts as biochemical. The text has this: Study 1—Enzyme Inhibition
Sequence of Isoleucyl-tRNA synthetase (IleRS) (P00956 whole entry, looked up): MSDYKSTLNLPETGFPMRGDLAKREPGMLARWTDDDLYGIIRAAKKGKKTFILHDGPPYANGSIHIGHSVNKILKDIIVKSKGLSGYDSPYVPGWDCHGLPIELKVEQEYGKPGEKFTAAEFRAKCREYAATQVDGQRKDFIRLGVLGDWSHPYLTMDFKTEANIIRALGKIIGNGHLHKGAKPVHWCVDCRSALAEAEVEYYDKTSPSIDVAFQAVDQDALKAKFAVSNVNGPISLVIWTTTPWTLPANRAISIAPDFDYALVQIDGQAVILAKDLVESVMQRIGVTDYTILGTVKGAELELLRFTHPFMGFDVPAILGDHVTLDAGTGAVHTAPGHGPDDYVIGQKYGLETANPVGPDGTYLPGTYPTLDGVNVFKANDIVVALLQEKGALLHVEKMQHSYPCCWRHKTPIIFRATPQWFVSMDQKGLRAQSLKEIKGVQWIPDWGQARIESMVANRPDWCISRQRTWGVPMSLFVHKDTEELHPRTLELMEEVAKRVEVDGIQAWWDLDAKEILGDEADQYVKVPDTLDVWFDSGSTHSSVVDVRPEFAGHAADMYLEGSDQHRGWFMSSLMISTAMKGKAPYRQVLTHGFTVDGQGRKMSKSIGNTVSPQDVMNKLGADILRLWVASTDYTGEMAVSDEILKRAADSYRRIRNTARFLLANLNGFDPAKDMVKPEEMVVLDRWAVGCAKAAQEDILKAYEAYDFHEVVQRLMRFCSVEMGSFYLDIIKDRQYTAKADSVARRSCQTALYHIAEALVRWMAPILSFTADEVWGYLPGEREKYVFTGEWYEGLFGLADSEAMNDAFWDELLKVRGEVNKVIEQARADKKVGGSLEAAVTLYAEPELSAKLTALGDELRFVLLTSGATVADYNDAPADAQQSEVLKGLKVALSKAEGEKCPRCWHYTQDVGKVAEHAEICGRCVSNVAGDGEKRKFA
The aminoacylation reaction catalyzed by aminoacyl-tRNA synthetases (aaRS) takes place in two steps. In the first step, aaRS activates its cognate amino acid with ATP; and in the second step the activated amino acid is loaded to its corresponding tRNA. This reaction can be summarized as follows: aaRS+aa+ATP=aaRS-aa-AMP+PPi aaRS-aa-AMP+tRNA=aa-tRNA+AMP+aaRS […]
wherein: aaRS, aminoacyl-tRNA synthetase; aa, amino acid; aaRS-aa-AMP, enzyme-bound to aminoacyl-adenylate; AMP, adenosine monophosphate; aa-tRNA, aminoacyl-tRNA, PPi, inorganic pyrophosphate.
Isoleucyl-tRNA Synthetase a. Single Point Percentage Inhibition
The activity of the pathogenic aaRSs was monitored by measuring AMP production using the commercial kit AMP-Glo (Promega, Madison, USA).
Ligand stock solutions were prepared in 100% DMSO at 10 mM concentration. An assay buffer consisting of 100 mM Tris HCl pH 7.6, 40 mM MgCl, 20 mM KCl and 150 mM NaCl was prepared in dH2O. An enzyme solution containing 51.77 μM IleRS was prepared in assay buffer to provide 30 nM final assay concentration and 75 nM reservoir concentration for a 1:2.5 dilution in the assay. A substrate solution was also prepared in assay buffer with 50 mM L-isoleucine, 10 mM ATP and 100 mg/mL tRNA. A final assay concentration of 500 μM L-isoleucine, 5 μM ATP and 1 mg/mL tRNA and reservoir concentration of 833.33 μM L-isoleucine, 8.33 μM ATP and 1.67 mg/mL tRNA was used for a 1:1.66 dilution in assay.
Enzyme percentage inhibition values were recorded in triplicate at a single point concentration of 100 μM.
Using the same enzymatic assay in a 384-well plate format, ten point concentration response curves were generated for each compound using a top concentration of 100 μM. The known inhibitor, IleAMS was used as a positive control for the IleRS assay. 100% DMSO was used as a negative control. The IC50 was calculated based on non-linear regression analysis.

Series [2] can be described thus: Human cell viability / cytotoxicity (CellTiter-Glo, 24 hours). Type of series: cell-based. Conditions: human, HepG2 cells (ATCC HB-8065); HepG2 ATCC HB-8065, 24 hours; read-out: Cytotoxicity in HepG2 ATCC HB-8065 Cell Line, IC50. An outline of the steps: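 HepG2 cells (15,000/well, MEM with 1% NEAA and 1% pyruvate) were grown 2 days, then exposed to compounds in duplicate for 24 h at 1.28% DMSO. Viability was read as ATP by CellTiter-Glo luminescence relative to DMSO-only wells. IC50 is in μg/mL.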

For series [3], the system named is bacteria (ATCC reference strains). Nature of the series: Antibacterial activity, MIC by broth micro-dilution (CLSI).
In series [4] the target is Leucyl-tRNA synthetase (LeuRS) (Escherichia coli (strain K12), UniProt P07813). The series is described as follows: Leucyl-tRNA synthetase enzyme inhibition (AMP-Glo; single point % inhibition at 100 μM and IC50). It counts as biochemical. To be noted: E. coli LeuRS; read-out: Enzyme Inhibition - IC50, E. coli LeuRS.
Sequence of Leucyl-tRNA synthetase (LeuRS) (P07813 whole entry, looked up): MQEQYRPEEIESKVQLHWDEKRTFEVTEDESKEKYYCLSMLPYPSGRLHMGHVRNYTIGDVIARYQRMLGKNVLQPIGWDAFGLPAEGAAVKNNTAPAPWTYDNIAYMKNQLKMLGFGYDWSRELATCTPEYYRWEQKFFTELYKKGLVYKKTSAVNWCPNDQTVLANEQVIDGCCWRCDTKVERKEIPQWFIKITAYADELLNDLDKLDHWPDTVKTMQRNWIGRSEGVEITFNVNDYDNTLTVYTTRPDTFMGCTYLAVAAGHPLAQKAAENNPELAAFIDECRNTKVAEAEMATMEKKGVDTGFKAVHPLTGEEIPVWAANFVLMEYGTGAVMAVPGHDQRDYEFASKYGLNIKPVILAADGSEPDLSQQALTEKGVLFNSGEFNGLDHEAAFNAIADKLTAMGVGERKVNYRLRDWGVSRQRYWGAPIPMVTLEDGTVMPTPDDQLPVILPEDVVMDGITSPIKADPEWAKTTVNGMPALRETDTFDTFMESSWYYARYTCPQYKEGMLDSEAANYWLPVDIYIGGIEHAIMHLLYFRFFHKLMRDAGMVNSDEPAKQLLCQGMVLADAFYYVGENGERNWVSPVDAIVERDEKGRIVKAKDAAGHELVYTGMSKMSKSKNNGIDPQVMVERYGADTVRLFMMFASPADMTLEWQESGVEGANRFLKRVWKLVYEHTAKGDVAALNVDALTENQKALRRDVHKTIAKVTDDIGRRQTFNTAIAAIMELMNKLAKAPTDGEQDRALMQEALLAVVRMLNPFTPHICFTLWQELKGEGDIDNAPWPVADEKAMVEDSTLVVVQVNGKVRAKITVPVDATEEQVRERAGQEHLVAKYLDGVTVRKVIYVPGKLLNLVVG
Setting [5] is: Acinetobacter baumannii, read-out: Antibacterial Activity (MIC), E = A. baumannii B1931.
[6] abbreviates: Enterobacter cloacae, read-out: Antibacterial Activity (MIC), B = Enterobacter cloacae B1966.
Where [7] appears, read: Escherichia coli, ATCC25922, read-out: Antibacterial Activity (MIC), A = E. coli ATCC 25922.
[8] abbreviates: Haemophilus influenzae, ATCC49247, read-out: Antibacterial Activity (MIC), F = H. influenzae ATCC 49247.
The mark [9] stands for this setting: Klebsiella pneumoniae, ATCC700603, read-out: Antibacterial Activity (MIC), C = K. pneumoniae ATCC 700603.
Where [10] appears, read: Pseudomonas aeruginosa, ATCC27853, read-out: Antibacterial Activity (MIC), D = P. aeruginosa ATCC 27853.
The mark [11] stands for this setting: E. coli IleRS, read-out: Enzyme Inhibition - IC50, E. coli IleRS.

The structures appear in SMILES notation. Converted amounts (≈) assume the structure as drawn. Where two headings read alike, the source gives them in different places.

Compound `CC[C@H](C)[C@H](N)C(=O)N=[S@](N)(=O)c1ccc(C)cc1.Cl` [ANASIA-034-1] came in with an IC50 in series [1] of 14.7 µM. Further, the IC50 at 24 h in series [2] was more than 64 µg/mL. For the same compound, the MIC was more than 64 µg/mL in series [3] (setting [5]); more than 64 µg/mL in series [3] (setting [6]); more than 64 µg/mL in series [3] (setting [7]); 64 µg/mL in series [3] (setting [8]); more than 64 µg/mL in series [3] (setting [9]); more than 64 µg/mL in series [3] (setting [10]).
In series [1], `CC[C@H](C)[C@H](N)C(=O)N=[S@](N)(=O)c1cccc(Oc2ccc(Cl)cc2)c1` [ANASIA-052-1] showed an IC50 of 37.7 µM. Also, the IC50 at 24 h in series [2] is more than 64 µg/mL.
As for `CC[C@H](C)[C@H](N)C(=O)N=[S@@](N)(=O)c1ccc(C)s1.Cl` [ANASIA-031-2], in series [1] (setting [11]), the IC50 worked out at 2.65 µM. Moreover, the IC50 at 24 h in series [2] is more than 64 µg/mL. The MIC was more than 64 µg/mL in series [3] (setting [5]); 64 µg/mL in series [3] (setting [6]); 64 µg/mL in series [3] (setting [7]); 16 µg/mL in series [3] (setting [8]); more than 64 µg/mL in series [3] (setting [9]); more than 64 µg/mL in series [3] (setting [10]).
Regarding `CC1CCC(N)(C(=O)N=S(N)(=O)c2ccccc2)C1` (stereo not shown) [ANASIA-123], the values for the half-maximal inhibitory concentration (IC50) in series [1] (setting [11]) and in series [4] were more than 100 µM and 4.87 µM, respectively.
As for `CC[C@H](C)[C@H](N)C(=O)N=[S@@](N)(=O)c1cscc1C.Cl` [ANASIA-079-2], the IC50 in series [1] (setting [11]) turned out to be 0.372 µM. Also, the MIC in series [3] (setting [7]) came out at 64 µg/mL.
Compound `CC[C@H](C)[C@H](N)C(=O)N=[S@](N)(=O)c1ccc(Cl)cc1` [ANASIA-035-1] showed an IC50 in series [1] of 18.3 µM. Further, the IC50 at 24 h in series [2] is more than 64 µg/mL.
The compound `CC[C@H](C)[C@H](N)C(=O)N=[S@](N)(=O)c1ccc(Cl)c(Cl)c1` [ANASIA-036-1] displayed a half-inhibitory concentration (IC50) in series [1] of 7.86 µM. Moreover, the concentration for half-maximal inhibition (IC50) at 24 h in series [2] is more than 64 µg/mL.
`CC[C@H](C)[C@H](N)C(=O)N=S(N)(=O)c1cc2ccccc2s1` (stereo partly shown) [ANASIA-037]: the IC50 in series [1] (setting [11]) amounted to 2.74 µM. Also, in series [2], the IC50 at 24 h is more than 64 µg/mL. In addition, the MIC was more than 64 µg/mL in series [3] (setting [5]); more than 64 µg/mL in series [3] (setting [6]); more than 64 µg/mL in series [3] (setting [7]); 32 µg/mL (≈ 98.3 µM) in series [3] (setting [8]); more than 64 µg/mL in series [3] (setting [9]); more than 64 µg/mL in series [3] (setting [10]).
For `CC[C@H](C)[C@H](N)C(=O)N=[S@@](N)(=O)c1ccc(Cl)cc1.Cl` [ANASIA-035-2], the IC50 in series [1] (setting [11]) amounted to 4.65 µM. For the same compound, the IC50 at 24 h in series [2] is more than 64 µg/mL. The MIC was more than 64 µg/mL in series [3] (setting [5]); more than 64 µg/mL in series [3] (setting [6]); more than 64 µg/mL in series [3] (setting [7]); 64 µg/mL in series [3] (setting [8]); more than 64 µg/mL in series [3] (setting [9]); more than 64 µg/mL in series [3] (setting [10]).
In the case of `CC[C@H](C)[C@H](N)C(=O)N=S(N)(=O)c1cc2sccc2s1` (stereo partly shown) [ANASIA-138], the IC50 in series [1] (setting [11]) turned out to be 0.383 µM. Moreover, the half-maximal inhibitory concentration (IC50) at 24 h in series [2] was more than 64 µg/mL. Further, the MIC was more than 64 µg/mL in series [3] (setting [5]); more than 64 µg/mL in series [3] (setting [6]); more than 64 µg/mL in series [3] (setting [7]); 16 µg/mL (≈ 48.3 µM) in series [3] (setting [8]); more than 64 µg/mL in series [3] (setting [9]); more than 64 µg/mL in series [3] (setting [10]).
As to `CC[C@H](C)[C@H](N)C(=O)N=[S@@](N)(=O)c1ccc(Cl)s1.Cl` [ANASIA-029-2], the half-inhibitory concentration (IC50) in series [1] (setting [11]) was 4.59 µM. For the same compound, the concentration for half-maximal inhibition (IC50) at 24 h in series [2] is more than 64 µg/mL. In addition, the MIC in series [3] (setting [5]) is more than 64 µg/mL; in series [3] (setting [6]), more than 64 µg/mL; in series [3] (setting [7]) it was 64 µg/mL; in series [3] (setting [8]) it was 16 µg/mL; in series [3] (setting [9]), more than 64 µg/mL; in series [3] (setting [10]), more than 64 µg/mL.
As for `CC[C@H](C)[C@H](N)C(=O)N=S(N)(=O)c1ccc(C)s1` (stereo partly shown) [ANASIA-031], the IC50 in series [1] (setting [11]) turned out to be 6.7 µM. Moreover, the IC50 at 24 h in series [2] is more than 64 µg/mL. For the same compound, the MIC in series [3] (setting [5]) is more than 64 µg/mL; in series [3] (setting [6]) it was more than 64 µg/mL; in series [3] (setting [7]) it was more than 64 µg/mL; in series [3] (setting [8]) it was 64 µg/mL (≈ 221 µM); in series [3] (setting [9]), more than 64 µg/mL; in series [3] (setting [10]) it was more than 64 µg/mL.
Consider `CC[C@H](C)[C@H](N)C(=O)N=[S@@](N)(=O)c1ccc2cccnc2c1` [ANASIA-054-2], for which the IC50 in series [1] (setting [11]) worked out at 19.9 µM.
